Test results published in patent publication US20230356105A1, “TETRAAZADODECANE BASED CHELATING AGENTS FOR SEPARATION OF RARE EARTH ELEMENTS AND METHOD THEREFOR” (Ustav Organicke Chemie a Biochemie AV CR V.V.I., priority 2020, published 2023).

Assays:
[1] = Separation of industrially relevant binary mixtures by precipitation using L1, L2 and L3 (Example 10); assay type: physicochemical; conditions: supernatant
Description: Analogous to Example 7), three sets of reaction mixtures with two metals and either compound L1, L2, or L3 were prepared in a 96-well plate with the following differences: each well was equipped with one PTFE-coated magnetic stir bar, the well plate was sealed with a silicon cover, and the reaction mixtures were stirred on a magnetic stirrer for 2 days at room temperature. Analogous to Example 7), the well plate was then centrifuged and concentrations of the metals were determined using ICP-OES. […] It is evident from the results that certain degrees of enrichment are achieved for very different combinations of metals, and that ligands L1, L2, and L3 have different selectivities for given combinations of metals.

[2] = Use of additives to improve separation of Nd/Dy mixture by precipitation with L5 (Example 18); assay type: physicochemical; conditions: 11 mM L5
Description: Stock solutions were pipetted into plastic 1×1 cm cuvettes to prepare reaction mixtures with concentrations as follows: • 1. […] 5 mM NdCl3 • 3. 5 mM DyCl3 • 4. 500 mM MOPS pH=7 • 5. the additive of interest, in a variable concentration; if possible, stock solutions were prepared from Na^+ salt forms of the compound; if not, the stock solutions were titrated by NaOH/HCl to pH=7 prior to addition (see Table 12 for additives and concentrations)
These aqueous reaction mixtures, each prepared to a total volume of 2.0 mL with the addition of water as necessary, were mixed by the use of a PTFE-coated stir bar on a magnetic stirrer. The cuvettes were sealed with transparent tape to prevent evaporation overnight. The reaction mixtures were stirred for 18 hours, at which point 500 μL aliquots of each reaction mixture were transferred into plastic 2 mL Eppendorf tubes and centrifuged. The supernatants were carefully pipetted out and transferred to a new set of tubes. The precipitate was dissolved by addition of 500 μL 1M HCl. The absolute concentration of Nd and Dy in each supernatant and precipitate was determined by ICP-OES.

Question: What does the source list for `O=C(O)CN1CCNCCN(CC(=O)O)CCN(Cc2ccc(C(=O)O)cc2)CC1` [L3, 2,2′-(4-(4-carboxybenzyl)-1,4,7,10-tetraazacyklododekane-1,7-diyl)Diacetic Acid]?
Answer: [mM] M1 ([1]; M1/M2=Eu/Y): 0.016 mM; [mM] M2 ([1]; M1/M2=Eu/Y): 0.076 mM; [mM] M1 ([1]; M1/M2=La/Ce): 0.111 mM; [mM] M2 ([1]; M1/M2=La/Ce): 0.036 mM; [mM] M1 ([1]; M1/M2=Nd/Ce): 0.000 mM; [mM] M2 ([1]; M1/M2=Nd/Ce): 0.745 mM; [mM] M1 ([1]; M1/M2=Nd/Dy): 0.000 mM; [mM] M2 ([1]; M1/M2=Nd/Dy): 0.025 mM; [mM] M1 ([1]; M1/M2=Nd/La): 0.000 mM; [mM] M2 ([1]; M1/M2=Nd/La): 0.102 mM; [mM] M1 ([1]; M1/M2=Nd/Pr): 0.000 mM; [mM] M2 ([1]; M1/M2=Nd/Pr): 0.016 mM; [mM] M1 ([1]; M1/M2=Nd/Tb): 0.008 mM; [mM] M2 ([1]; M1/M2=Nd/Tb): 0.008 mM; [mM] M1 ([1]; M1/M2=Pr/Ce): 0.060 mM; [mM] M2 ([1]; M1/M2=Pr/Ce): 0.021 mM; [mM] M1 ([1]; M1/M2=Pr/Dy): 0.018 mM; [mM] M2 ([1]; M1/M2=Pr/Dy): 0.034 mM; [mM] M1 ([1]; M1/M2=Pr/La): 0.014 mM; [mM] M2 ([1]; M1/M2=Pr/La): 0.098 mM; [mM] M1 ([1]; M1/M2=Tb/Dy): 0.010 mM; [mM] M2 ([1]; M1/M2=Tb/Dy): 0.027 mM; [mM] M1 ([1]; M1/M2=Tb/Eu): 0.018 mM; [mM] M2 ([1]; M1/M2=Tb/Eu): 0.017 mM; [mM] M1 ([1]; M1/M2=Tb/Pr): 0.015 mM; [mM] M2 ([1]; M1/M2=Tb/Pr): 0.018 mM; [mM] M1 ([1]; M1/M2=Tb/Y): 0.018 mM; [mM] M2 ([1]; M1/M2=Tb/Y): 0.078 mM

Question: For `Cl` [chloride], which “Precipitate concentration [mM] Dy” value ([2]; additive 100 mM) is on record?
Answer: The value was 4.58 mM.

Question: What about the “Precipitate concentration [mM] Nd” value ([2]; additive 100 mM) of the same molecule?
Answer: Its value is 4.62 mM.

Question: And the “Supernatant concentration [mM] Dy” value ([2]; additive 100 mM)?
Answer: Its value is 0.29 mM.

Question: And the “Supernatant concentration [mM] Nd” value ([2]; additive 100 mM)?
Answer: The value was 0.24 mM.

Question: And the “Precipitate concentration [mM] Dy” value ([2]; additive 200 mM)?
Answer: The value was 4.48 mM.

Question: What about the “Precipitate concentration [mM] Nd” value ([2]; additive 200 mM) of the same molecule?
Answer: Its value is 4.57 mM.

Question: What about the “Supernatant concentration [mM] Dy” value ([2]; additive 200 mM) of the same molecule?
Answer: The value was 0.22 mM.

Question: And the “Supernatant concentration [mM] Nd” value ([2]; additive 200 mM)?
Answer: Its value is 0.12 mM.

Question: What about the “Precipitate concentration [mM] Dy” value ([2]; additive 500 mM) of the same molecule?
Answer: Its value is 4.29 mM.

Question: And the “Precipitate concentration [mM] Nd” value ([2]; additive 500 mM)?
Answer: Its value is 4.39 mM.

Question: And the “Supernatant concentration [mM] Dy” value ([2]; additive 500 mM)?
Answer: The value was 0.24 mM.

Question: And the “Supernatant concentration [mM] Nd” value ([2]; additive 500 mM)?
Answer: The value was 0.11 mM.

Question: What about the “Precipitate concentration [mM] Dy” value ([2]; additive 1000 mM) of the same molecule?
Answer: The value was 4.88 mM.

Question: What about the “Precipitate concentration [mM] Nd” value ([2]; additive 1000 mM) of the same molecule?
Answer: The value was 4.97 mM.

Question: And the “Supernatant concentration [mM] Dy” value ([2]; additive 1000 mM)?
Answer: The value was 0.24 mM.

Question: What about the “Supernatant concentration [mM] Nd” value ([2]; additive 1000 mM) of the same molecule?
Answer: The value was 0.11 mM.

Question: Which “Precipitate concentration [mM] Dy” value ([2]; additive 100 mM) does the source give for `O=S(=O)(O)O` [sulfate] here?
Answer: Its value is 4.52 mM.

Question: And the “Precipitate concentration [mM] Nd” value ([2]; additive 100 mM)?
Answer: Its value is 4.90 mM.

Question: What about the “Supernatant concentration [mM] Dy” value ([2]; additive 100 mM) of the same molecule?
Answer: The value was 0.34 mM.

Question: And the “Supernatant concentration [mM] Nd” value ([2]; additive 100 mM)?
Answer: The value was 0.07 mM.

Question: And the “Precipitate concentration [mM] Dy” value ([2]; additive 250 mM)?
Answer: The value was 4.09 mM.

Question: What about the “Precipitate concentration [mM] Nd” value ([2]; additive 250 mM) of the same molecule?
Answer: The value was 4.96 mM.

Question: And the “Supernatant concentration [mM] Dy” value ([2]; additive 250 mM)?
Answer: Its value is 0.47 mM.

Question: What about the “Supernatant concentration [mM] Nd” value ([2]; additive 250 mM) of the same molecule?
Answer: The value was 0.08 mM.

Question: What about the “Precipitate concentration [mM] Dy” value ([2]; additive 500 mM) of the same molecule?
Answer: Its value is 3.57 mM.

Question: And the “Precipitate concentration [mM] Nd” value ([2]; additive 500 mM)?
Answer: Its value is 4.30 mM.

Question: What about the “Supernatant concentration [mM] Dy” value ([2]; additive 500 mM) of the same molecule?
Answer: Its value is 1.00 mM.

Question: What about the “Supernatant concentration [mM] Nd” value ([2]; additive 500 mM) of the same molecule?
Answer: The value was 0.59 mM.

Question: And the “Precipitate concentration [mM] Dy” value ([2]; additive 1000 mM)?
Answer: The value was 3.35 mM.

Question: What about the “Precipitate concentration [mM] Nd” value ([2]; additive 1000 mM) of the same molecule?
Answer: The value was 4.61 mM.

Question: What about the “Supernatant concentration [mM] Dy” value ([2]; additive 1000 mM) of the same molecule?
Answer: Its value is 1.20 mM.

Question: What about the “Supernatant concentration [mM] Nd” value ([2]; additive 1000 mM) of the same molecule?
Answer: Its value is 0.34 mM.
